One assay relates to Pneumocystis carinii. Kind of assay: inhibitory concentration against Pneumocystis carinii. The class given is functional, organism-based.
A further assay concerns A549. Kind of assay: Cytotoxicity against A549 cell line. In kind it is functional, cell-based. To be noted: Homo sapiens.

By IC50 is commonly meant the midpoint of a concentration-inhibition curve. Higher therefore signals weaker potency in that assay.

Take `N=C(N)c1ccc(OCc2ccccc2COc2ccc(C(=N)N)cc2)cc1`: the 50% inhibitory concentration (IC50) with Pneumocystis carinii turned out to be 1400 nM; with A549, 33100 nM.
In the case of `N=C(N)c1ccc(NC(=O)CCCC(=O)Nc2ccc(C(=N)N)cc2)cc1`, the results for the IC50 in the assay with Pneumocystis carinii and with A549 were 3 nM and greater than 300 nM, respectively.
The matching figures for `N=C(N)c1ccc(COc2ccccc2OCc2ccc(C(=N)N)cc2)cc1`: 1300 nM and 44100 nM.
The matching figures for `N=C(N)c1ccc(NC(=O)CCCCC(=O)Nc2ccc(C(=N)N)cc2)cc1`: 2 nM and greater than 200 nM.
In the case of `N=C(N)c1ccc(OCc2ccc(COc3ccc(C(=N)N)cc3)cc2)cc1`, the results for the half-inhibitory concentration (IC50) in the assay on Pneumocystis carinii and with A549 were 1300 nM and 30200 nM, respectively.
The matching figures for `N=C(N)c1ccc(OC(=O)c2ccc(C(=O)Oc3ccc(C(=N)N)cc3)cc2)cc1` [BIS(4-CARBAMIMIDOYLPHENYL)TEREPHTHALATE]: 13400 nM and 121000 nM.
Take `N=C(N)c1ccc(OCCCCCOc2ccc(C(=N)N)cc2)cc1` [PENTAMIDINE]: the IC50 in the assay with Pneumocystis carinii came to 500 nM; in the assay on A549, 24000 nM.

Values taken from ChEMBL document CHEMBL1137033, “Novel bisbenzamidines as potential drug candidates for the treatment of Pneumocystis carinii pneumonia” (Bioorg Med Chem Lett, 2004).
